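Cells were grown in 96-well plates and exposed to each compound for 48 hours at five concentrations; endpoints were interpolated linearly between bracketing concentrations, or set to the highest concentration if not reached. Definition used: TGI = concentration required for complete inhibition of growth.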
Experiments:
Assay in all cases: DTP human tumour cell line panel, 48 h
[1] = tested on: NCI-H460 lung
[2] = tested on: T-47D breast
[3] = tested on: M14 melanoma
[4] = tested on: IGROV1 ovarian
[5] = tested on: RXF 393 renal
[6] = tested on: OVCAR-5 ovarian
[7] = tested on: HCT-116 colon
[8] = tested on: SN12C renal
[9] = tested on: HOP-62 NSCLC
[10] = tested on: NCI-H23 lung
[11] = tested on: NCI-H226 lung
[12] = tested on: UACC-62 melanoma
[13] = tested on: TK-10 renal
[14] = tested on: MDA-N
[15] = tested on: MALME-3M melanoma
[16] = tested on: OVCAR-8 ovarian
[17] = tested on: SF-268 CNS
[18] = tested on: KM12 colon
[19] = tested on: 786-0 renal
[20] = tested on: MCF7 breast
[21] = tested on: HCT-15 colon
[22] = tested on: HS 578T breast
[23] = tested on: SNB-75 CNS
[24] = tested on: HOP-92 NSCLC
[25] = tested on: LOX IMVI melanoma
[26] = tested on: PC-3 prostate
[27] = tested on: SNB-19 CNS
[28] = tested on: U251 CNS
[29] = tested on: HL-60(TB) leukemia
[30] = tested on: MDA-MB-435
[31] = tested on: SK-MEL-28 melanoma
[32] = tested on: NCI-H522 lung
[33] = tested on: K-562 leukemia
[34] = tested on: A549 NSCLC
[35] = tested on: SW-620 colon
[36] = tested on: HCC-2998 colon
[37] = tested on: CCRF-CEM leukemia
[38] = tested on: EKVX NSCLC
[39] = tested on: SK-OV-3 ovarian
[40] = tested on: SF-295 CNS
[41] = tested on: SR leukemia
[42] = tested on: CAKI-1 renal
[43] = tested on: HT29 colon
[44] = tested on: OVCAR-4 ovarian
[45] = tested on: ACHN renal
[46] = tested on: A498 renal
[47] = tested on: RPMI-8226 leukemia
[48] = tested on: MDA-MB-231 breast
[49] = tested on: SK-MEL-2 melanoma
[50] = tested on: OVCAR-3 ovarian
[51] = tested on: SK-MEL-5 melanoma
[52] = tested on: NCI/ADR-RES ovarian
[53] = tested on: UACC-257 melanoma
[54] = tested on: SF-539 CNS
[55] = tested on: COLO 205 colon
[56] = tested on: DU-145 prostate
[57] = tested on: MOLT-4 leukemia
[58] = tested on: UO-31 renal

Compound `CC1(c2ccccc2)N=C(C(N)=O)c2[nH]cnc2N1` (configuration not stated) has a TGI [1] greater than 100 µM, a TGI [2] greater than 100 µM and a TGI [3] greater than 100 µM. The TGI [4] was greater than 100 µM, the TGI [5] was greater than 100 µM and the TGI [6] was greater than 100 µM. For the same compound, the TGI [7] was greater than 100 µM, the TGI [8] was greater than 100 µM and the TGI [9] was greater than 100 µM. For the same compound, the TGI [10] was greater than 100 µM, the TGI [11] was greater than 100 µM and the TGI [12] was greater than 100 µM. For the same compound, the TGI [13] was greater than 100 µM, the TGI [14] was greater than 100 µM and the TGI [15] was greater than 100 µM. The TGI [16] was greater than 100 µM, the TGI [17] was greater than 100 µM and the TGI [18] was greater than 100 µM. The TGI [19] was greater than 100 µM, the TGI [20] was greater than 100 µM and the TGI [21] was greater than 100 µM. For the same compound, the TGI [22] was greater than 100 µM, the TGI [23] was greater than 100 µM and the TGI [24] was greater than 100 µM. For the same compound, the TGI [25] was greater than 100 µM, the TGI [26] was greater than 100 µM and the TGI [27] was greater than 100 µM. The TGI [28] was greater than 100 µM, the TGI [29] was greater than 100 µM and the TGI [30] was greater than 100 µM. For the same compound, the TGI [31] was greater than 100 µM, the TGI [32] was greater than 100 µM and the TGI [33] was greater than 100 µM. For the same compound, the TGI [34] was greater than 100 µM, the TGI [35] was greater than 100 µM and the TGI [36] was greater than 100 µM. The TGI [37] was greater than 100 µM, the TGI [38] was greater than 100 µM and the TGI [39] was greater than 100 µM. The TGI [40] was greater than 100 µM, the TGI [41] was greater than 100 µM and the TGI [42] was greater than 100 µM. The TGI [43] was greater than 100 µM, the TGI [44] was greater than 100 µM and the TGI [45] was greater than 100 µM. For the same compound, the TGI [46] was greater than 100 µM, the TGI [47] was greater than 100 µM and the TGI [48] was greater than 100 µM. For the same compound, the TGI [49] was greater than 100 µM, the TGI [50] was greater than 100 µM and the TGI [51] was greater than 100 µM. The TGI [52] was greater than 100 µM, the TGI [53] was greater than 100 µM and the TGI [54] was greater than 100 µM. It also gave a TGI [55] greater than 100 µM and a TGI [56] greater than 100 µM.

Compound `CCCCCCCCCCOC1C(C(O)CNCCCN(C)C)OC2OC3(CCCCC3)OC21` (configuration not stated) has a TGI [1] of 3.44 µM, a TGI [2] of 5.42 µM and a TGI [3] of 3.55 µM. The TGI [4] was 3.82 µM, the TGI [57] was 3.87 µM and the TGI [5] was 3.7 µM. The TGI [6] was 3.71 µM, the TGI [7] was 3.53 µM and the TGI [8] was 5.19 µM. It also gave a TGI [9] of 4.04 µM, a TGI [10] of 3.01 µM and a TGI [11] of 36.7 µM. It also gave a TGI [12] of 4.53 µM, a TGI [13] of 6.55 µM and a TGI [14] of 3.37 µM. The TGI [15] was 3.61 µM, the TGI [16] was 4.18 µM and the TGI [17] was 5.12 µM. For the same compound, the TGI [18] was 2.91 µM, the TGI [19] was 3.37 µM and the TGI [20] was 3.7 µM. The TGI [21] was 3.21 µM, the TGI [22] was 6.53 µM and the TGI [23] was 0.681 µM. The TGI [24] was 5.33 µM, the TGI [25] was 2.68 µM and the TGI [26] was 6.7 µM. It also gave a TGI [27] of 3.24 µM, a TGI [28] of 3.23 µM and a TGI [58] of 4.45 µM. For the same compound, the TGI [29] was 3.59 µM, the TGI [30] was 3.56 µM and the TGI [31] was 3.1 µM. The TGI [32] was 3.56 µM, the TGI [33] was 3.47 µM and the TGI [34] was 11.7 µM. It also gave a TGI [35] of 3.24 µM, a TGI [36] of 4.46 µM and a TGI [37] of 3.64 µM. For the same compound, the TGI [38] was 7.6 µM, the TGI [39] was 13.9 µM and the TGI [40] was 3.52 µM. The TGI [41] was 0.739 µM, the TGI [42] was 4.21 µM and the TGI [43] was 3.12 µM. The TGI [44] was 4.25 µM, the TGI [45] was 8.09 µM and the TGI [47] was 4.37 µM. It also gave a TGI [48] of 3.31 µM, a TGI [49] of 4 µM and a TGI [50] of 3.59 µM. The TGI [51] was 3.34 µM, the TGI [52] was 8.87 µM and the TGI [53] was 10.8 µM. For the same compound, the TGI [55] was 3.43 µM and the TGI [56] was 9.24 µM.

— PubChem BioAssay (NCI)
